{"source": "paper PMC2584942", "about": "“Phase I dose escalation study of telatinib (BAY 57-9352) in patients with advanced solid tumours” (British Journal of Cancer, 2008)", "key": {"[1]": {"assay": "Phase I dose escalation: study drug-related adverse events (NCI CTC v2.0), DLT, MTD", "format": "in vivo", "procedure": "Administration of telatinib was continued until an unacceptable toxicity, disease progression or death occurred or the consent was withdrawn. At start of the study, only a solution formulation was available. The formulation as tablet was introduced into the study after first pharmacokinetic results became available. Based on pharmacokinetic data, OD, two times daily (BID), and three times daily schedules were evaluated.\nThree patients were initially enroled at each dose level. […] If any patient experienced a DLT, three additional patients were enroled at that dose level. If at least two out of six patients experienced a DLT, dose escalation had to be stopped and that dose was to be declared the toxic dose. The next lower dose level was defined as the MTD. […] In the course of the study the protocol was amended so that the onset of CTC grade 3 hypertension was only considered to be a DLT if the hypertension turned out to be refractory to standard antihypertensive treatment.\nAdverse events were assessed at the end of each cycle and graded according to the National Cancer Institute Common Toxicity Criteria (NCI CTC), v2.0 ([Trotti et al, 2000]).\n(§1) History, physical examinations, haematological and biochemical laboratory evaluations were performed at screening, on days 1, 7 and 14 of cycle 1 and on day 1 of subsequent cycles. Baseline objective tumour measurements were performed within 4 weeks prior to study treatment. Lesions at all disease sites were categorised as either measurable or nonmeasurable. Indicator lesions were selected and monitored throughout the study by the same assessor and using the same technique. Tumour response was evaluated according to the RECIST ([Therasse et al, 2000])."}, "[2]": {"tested_on": "refractory advanced solid tumours", "assay": "Tumour response according to RECIST", "format": "in vivo, human", "settings": "number of patients", "procedure": "as §1"}, "[3]": {"tested_on": "VEGFR-2 autophosphorylation", "design": "method as in printed", "settings": "whole-cell assay in vitro; background statement, ref not given; cited from earlier work"}, "[4]": {"settings": "noncontinuous dosing 600 mg BID (N=6)"}, "[5]": {"settings": "noncontinuous dosing 900 mg BID (N=6)"}, "[6]": {"settings": "noncontinuous dosing 1500 mg BID (N=6)"}, "[7]": {"settings": "noncontinuous dosing 75–300 mg BID (N=27)"}, "[8]": {"settings": "primary tumour site Colorectal, N=25"}, "[9]": {"settings": "primary tumour site Other, N=17"}, "[10]": {"settings": "primary tumour site Pancreatic, N=4"}}, "data": [{"smiles": "CNC(=O)c1cc(COc2nnc(Nc3ccc(Cl)cc3)c3ccoc23)ccn1", "note": "[telatinib]", "values": [{"measurement": "Incidence of patients with study drug-related adverse events, worst CTC grade 3: Hypertension", "setting": "[1]; [4]", "value": "3 (50) N(%)"}, {"measurement": "Incidence of patients with study drug-related adverse events, worst CTC grades 1–2: Anorexia", "setting": "[1]; [4]", "value": "1 (17) N(%)"}, {"measurement": "Incidence of patients with study drug-related adverse events, worst CTC grades 1–2: Any event", "setting": "[1]; [4]", "value": "2 (33) N(%)"}, {"measurement": "Incidence of patients with study drug-related adverse events, worst CTC grades 1–2: Fatigue", "setting": "[1]; [4]", "value": "2 (33) N(%)"}, {"measurement": "Incidence of patients with study drug-related adverse events, worst CTC grades 1–2: Voice changes/stridor/larynx", "setting": "[1]; [4]", "value": "2 (33) N(%)"}, {"measurement": "Incidence of patients with study drug-related adverse events, worst CTC grade 3: Any event", "setting": "[1]; [5]", "value": "2 (33) N(%)"}, {"measurement": "Incidence of patients with study drug-related adverse events, worst CTC grade 3: Hypertension", "setting": "[1]; [5]", "value": "2 (33) N(%)"}, {"measurement": "Incidence of patients with study drug-related adverse events, worst CTC grades 1–2: Anorexia", "setting": "[1]; [5]", "value": "1 (17) N(%)"}, {"measurement": "Incidence of patients with study drug-related adverse events, worst CTC grades 1–2: Any event", "setting": "[1]; [5]", "value": "3 (50) N(%)"}, {"measurement": "Incidence of patients with study drug-related adverse events, worst CTC grades 1–2: Hypertension", "setting": "[1]; [5]", "value": "1 (17) N(%)"}, {"measurement": "Incidence of patients with study drug-related adverse events, worst CTC grades 1–2: Voice changes/stridor/larynx", "setting": "[1]; [5]", "value": "2 (33) N(%)"}, {"measurement": "Incidence of patients with study drug-related adverse events, worst CTC grade 3: Abdominal pain or cramping", "setting": "[1]; [6]", "value": "1 (17) N(%)"}, {"measurement": "Incidence of patients with study drug-related adverse events, worst CTC grade 3: Any event", "setting": "[1]; [6]", "value": "4 (67) N(%)"}, {"measurement": "Incidence of patients with study drug-related adverse events, worst CTC grade 3: Diarrhoea, patients without colostomy", "setting": "[1]; [6]", "value": "1 (17) N(%)"}, {"measurement": "Incidence of patients with study drug-related adverse events, worst CTC grade 3: Hypertension", "setting": "[1]; [6]", "value": "3 (50) N(%)"}, {"measurement": "Incidence of patients with study drug-related adverse events, worst CTC grades 1–2: Anorexia", "setting": "[1]; [6]", "value": "2 (33) N(%)"}, {"measurement": "Incidence of patients with study drug-related adverse events, worst CTC grades 1–2: Any event", "setting": "[1]; [6]", "value": "2 (33) N(%)"}, {"measurement": "Incidence of patients with study drug-related adverse events, worst CTC grades 1–2: Diarrhoea, patients without colostomy", "setting": "[1]; [6]", "value": "1 (17) N(%)"}, {"measurement": "Incidence of patients with study drug-related adverse events, worst CTC grades 1–2: Hypertension", "setting": "[1]; [6]", "value": "1 (17) N(%)"}, {"measurement": "Incidence of patients with study drug-related adverse events, worst CTC grades 1–2: Nausea", "setting": "[1]; [6]", "value": "1 (17) N(%)"}, {"measurement": "Incidence of patients with study drug-related adverse events, worst CTC grades 1–2: Vomiting", "setting": "[1]; [6]", "value": "1 (17) N(%)"}, {"measurement": "Incidence of patients with study drug-related adverse events, worst CTC grade 3: Any event", "setting": "[1]; [7]", "value": "1 (4) N(%)"}, {"measurement": "Incidence of patients with study drug-related adverse events, worst CTC grade 3: Hypertension", "setting": "[1]; [7]", "value": "1 (4) N(%)"}, {"measurement": "Incidence of patients with study drug-related adverse events, worst CTC grades 1–2: Alopecia", "setting": "[1]; [7]", "value": "1 (4) N(%)"}, {"measurement": "Incidence of patients with study drug-related adverse events, worst CTC grades 1–2: Anorexia", "setting": "[1]; [7]", "value": "1 (4) N(%)"}, {"measurement": "Incidence of patients with study drug-related adverse events, worst CTC grades 1–2: Any event", "setting": "[1]; [7]", "value": "2 (7) N(%)"}, {"measurement": "Best response NA (not assessable for response)", "setting": "[2]; Total, N=71", "value": 1}, {"measurement": "Best response PD clin (RECIST)", "setting": "[2]; Total, N=71", "value": 9}, {"measurement": "Best response PD meas (RECIST)", "setting": "[2]; Total, N=71", "value": 14}, {"measurement": "Best response PR (RECIST)", "setting": "[2]; Total, N=71", "value": 2}, {"measurement": "Best response SD (RECIST)", "setting": "[2]; Total, N=71", "value": 42}, {"measurement": "Stabilisation (months) <6", "setting": "[2]; Total, N=71", "value": 62}, {"measurement": "Stabilisation (months) >6", "setting": "[2]; Total, N=71", "value": 5}, {"measurement": "Stabilisation (months) >12", "setting": "[2]; Total, N=71", "value": 3}, {"measurement": "Best response PD clin (RECIST)", "setting": "[2]; [8]", "value": 1}, {"measurement": "Best response PD meas (RECIST)", "setting": "[2]; [8]", "value": 6}, {"measurement": "Best response SD (RECIST)", "setting": "[2]; [8]", "value": 17}, {"measurement": "Stabilisation (months) <6", "setting": "[2]; [8]", "value": 23}, {"measurement": "Stabilisation (months) >6", "setting": "[2]; [8]", "value": 1}, {"measurement": "Stabilisation (months) >12", "setting": "[2]; [8]", "value": 1}, {"measurement": "Best response PD clin (RECIST)", "setting": "[2]; primary tumour site HCC, N=9", "value": 4}, {"measurement": "Best response SD (RECIST)", "setting": "[2]; primary tumour site HCC, N=9", "value": 5}, {"measurement": "Stabilisation (months) <6", "setting": "[2]; primary tumour site HCC, N=9", "value": 8}, {"measurement": "Stabilisation (months) >6", "setting": "[2]; primary tumour site HCC, N=9", "value": 1}, {"measurement": "Best response PD meas (RECIST)", "setting": "[2]; primary tumour site NSCLC, N=4", "value": 1}, {"measurement": "Best response SD (RECIST)", "setting": "[2]; primary tumour site NSCLC, N=4", "value": 3}, {"measurement": "Stabilisation (months) <6", "setting": "[2]; primary tumour site NSCLC, N=4", "value": 4}, {"measurement": "Best response NA (not assessable for response)", "setting": "[2]; [9]", "value": 1}, {"measurement": "Best response PD clin (RECIST)", "setting": "[2]; [9]", "value": 1}, {"measurement": "Best response PD meas (RECIST)", "setting": "[2]; [9]", "value": 4}, {"measurement": "Best response SD (RECIST)", "setting": "[2]; [9]", "value": 10}, {"measurement": "Stabilisation (months) <6", "setting": "[2]; [9]", "value": 13}, {"measurement": "Stabilisation (months) >6", "setting": "[2]; [9]", "value": 3}, {"measurement": "Best response PD clin (RECIST)", "setting": "[2]; [10]", "value": 2}, {"measurement": "Best response PD meas (RECIST)", "setting": "[2]; [10]", "value": 2}, {"measurement": "Stabilisation (months) <6", "setting": "[2]; [10]", "value": 4}, {"measurement": "Best response PD clin (RECIST)", "setting": "[2]; primary tumour site RCC, N=12", "value": 1}, {"measurement": "Best response PD meas (RECIST)", "setting": "[2]; primary tumour site RCC, N=12", "value": 1}, {"measurement": "Best response SD (RECIST)", "setting": "[2]; primary tumour site RCC, N=12", "value": 7}, {"measurement": "Stabilisation (months) <6", "setting": "[2]; primary tumour site RCC, N=12", "value": 10}, {"measurement": "Stabilisation (months) >12", "setting": "[2]; primary tumour site RCC, N=12", "value": 2}, {"measurement": "VEGFR-2 autophosphorylation", "setting": "[3]", "value": "inhibited"}]}]}
